Read-outs that look alike come from different tables or passages of the source. Marks after values point to notes of the source that are not given here.
Columns and labels:
Crj: CD(SD)IGS rats [1] = assay: Urinary PAG/hippuric acid ratio by 1H NMR in rats; conditions: rat urine, 3 days, mean n = 3-4
male cynomolgus monkeys [2] = conditions: cynomolgus monkey, in vivo, 60 mg/kg
Procedure: Amiodarone and perhexiline were purchased from SIGMA Company.
(§1) Subsequently, the animals were allocated to four groups (5 animals in total) comprising 2 animals in the control group and 1 male in each treatment group, respectively.
(§2) The high-dose dosing suspension was diluted with the dispersant/solvent to prepare a low-dose dosing suspension.
After completion of the administration, livers, kidneys, hearts, spleens, lungs, mesenteric lymph nodes, eyeballs, testes and brains were collected from all animals, and examined for histopathological changes by conventional method of optical microscopy. Additionally, blood samples were collected in the pre-dosing period, on the first day of administration, and on days 2 and 6 of treatment period, blood smear specimens were prepared, and vacuolated lymphocyte ratios were determined.

Crj: CD(SD)IGS rats [3] = conditions: rat, in vivo
Procedure: (§3) The following 10 kinds of commercially available drugs were examined as the test compounds for a potential of inducing PLsis by histopathological examination and peripheral blood lymphocyte testing.
(§4) The following experiments were performed using the prematurely autopsied animals.
(§5) The high-dose dosing suspension was diluted about 3 fold and 10 fold with dispersant/solvent to prepare intermediate- and low-dose dosing suspensions. […] [For LD50, the Summary Basis of Approval (FDA) for each drug was referenced to.]
(§6) The animals were examined for mortality, general conditions, body weight, food consumption and the like using PM4800 (Mettler) and EB3200D (Shimadzu Corporation).

Crj: CD(SD)IGS rats [4] = conditions: male, rat, in vivo, 3 days
Procedure: as §3, §4, §5, §6
Hematological examination was performed for parameters such as RBC count, hematocrit, hemoglobin concentration, mean corpuscular hemoglobin (MCH), mean corpuscular hemoglobin concentration (MCHC), mean corpuscular volume (MCV), platelet count, WBC count, reticulocyte count, differential WBC, and vacuolated lymphocyte ratio (for PLsis-inducing compounds only) using ADVIA120 (Bayer Medical Ltd.) and E-4000 (Sysmex Corporation).

male cynomolgus monkeys [5] = assay: Urinary PAGN/hippuric acid ratio by 1H NMR in monkeys; type: in vivo, cynomolgus monkey; conditions: for Urinary PAGN/hippuric acid ratio: male cynomolgus monkey, 60 mg/kg/day by gavage for 7 days
Procedure: as §1, §2
Pooled urine was collected from the monkeys in the Example above under fasting for about 6 hours in the pre-dosing period (Pre), on the first day of administration (Day 0), and on days 2 and 6 of treatment period (Days 2 and 6).
^1H NMR was performed as described below. Reagents were used without purification. Heavy water (D2O) was purchased from ISOTEC. […] INC (USA).
A phosphate buffer solution was prepared as described below.
Operating conditions were set as shown below.

Crj: CD(SD)IGS rats [6] = conditions: rat urine, LC-MS/MS, 60 mg/kg/day by gavage for 7 days
Procedure: During that period, the animals were quarantined, examined for general conditions, and weighed. Animals showing no abnormalities were selected and randomly allocated to five groups for urine collection each comprising four males.
The animals were individually housed in wire-net-based metal cages, and the individual cages were placed on water-washable rack in a clean booth as randomized for the animal groups. Animal room environmental conditions comprised a room temperature of 20 to 26° C., a relative humidity of 40 to 70%, and a fresh air ventilation frequency of 8 to 25 times/hour, with a bright phase of 12 hours/day (lighting time: 7:00 am to 7:00 pm). The animals were fed a γ-ray-irradiated powder food (CR-LPF, Oriental Yeast Co., Ltd.) and had free access to the food along with tap water.
A dispersant/medium was added to each test material, and the mixture was stirred to prepare dosing suspensions.
Each test material was administered by gavage at a dosing suspension volume of 10 mL/kg/day once daily for 7 days.
After completion of the administration, pooled urine was collected with ice cooling from all animals under fasting and water denial for about 6 hours. […]
Quantitative analyses of rat urinary hippuric acid and PAG by LC-MS/MS were performed as described below. […]

[7] = from Summary Basis of Approval (FDA); species and route not given; cited from earlier work

SMILES	PAG + hippuric acid/creatinine (Crj: CD(SD)IGS rats [1]; 60 mg/kg/day by gavage)	PAG/PAG + hippuric acid (Crj: CD(SD)IGS rats [1]; 60 mg/kg/day by gavage)	PAG/creatinine (first term of PAG + hippuric acid) (Crj: CD(SD)IGS rats [1]; 60 mg/kg/day by gavage)	PAG/hippuric acid (Crj: CD(SD)IGS rats [1]; 60 mg/kg/day by gavage)	hippuric acid/creatinine (second term of PAG + hippuric acid) (Crj: CD(SD)IGS rats [1]; 60 mg/kg/day by gavage)	PAG + hippuric acid/creatinine (Crj: CD(SD)IGS rats [1]; 200 mg/kg/day by gavage)	PAG/PAG + hippuric acid (Crj: CD(SD)IGS rats [1]; 200 mg/kg/day by gavage)	PAG/creatinine (first term of PAG + hippuric acid) (Crj: CD(SD)IGS rats [1]; 200 mg/kg/day by gavage)	PAG/hippuric acid (Crj: CD(SD)IGS rats [1]; 200 mg/kg/day by gavage)	hippuric acid/creatinine (second term of PAG + hippuric acid) (Crj: CD(SD)IGS rats [1]; 200 mg/kg/day by gavage)	PAG + hippuric acid/creatinine (Crj: CD(SD)IGS rats [1]; 600 mg/kg/day by gavage)	PAG/PAG + hippuric acid (Crj: CD(SD)IGS rats [1]; 600 mg/kg/day by gavage)	PAG/creatinine (first term of PAG + hippuric acid) (Crj: CD(SD)IGS rats [1]; 600 mg/kg/day by gavage)	PAG/hippuric acid (Crj: CD(SD)IGS rats [1]; 600 mg/kg/day by gavage)	hippuric acid/creatinine (second term of PAG + hippuric acid) (Crj: CD(SD)IGS rats [1]; 600 mg/kg/day by gavage)	Histopathological changes (PLsis): Liver (Crj: CD(SD)IGS rats [3]; 60 mg/kg/day)	Histopathological changes (PLsis): Lung (Crj: CD(SD)IGS rats [3]; 60 mg/kg/day)	Histopathological changes (PLsis): Lymph node (Crj: CD(SD)IGS rats [3]; 60 mg/kg/day)	Histopathological changes (PLsis): Others (Crj: CD(SD)IGS rats [3]; 60 mg/kg/day)	Histopathological changes (PLsis): Spleen (Crj: CD(SD)IGS rats [3]; 60 mg/kg/day)	other results
C1CCC(C(CC2CCCCN2)C2CCCCC2)CC1 (stereo not shown) [Perhexiline, perhexiline]	1.47	10.16%	0.15	11.39%	1.31	1.52	15.59* %	0.24	18.49%	1.28	0.75*	45.67* %	0.31	146.97* %	0.44	−	−	−	−	−	histopathological changes in any target organ (male cynomolgus monkeys [2]): observed; vacuolated lymphocyte ratio (male cynomolgus monkeys [2]): increase; Histopathological changes (PLsis): Liver (Crj: CD(SD)IGS rats [3]; 200 mg/kg/day): −; Histopathological changes (PLsis): Lung (Crj: CD(SD)IGS rats [3]; 200 mg/kg/day): +; Histopathological changes (PLsis): Lymph node (Crj: CD(SD)IGS rats [3]; 200 mg/kg/day): +; Histopathological changes (PLsis): Others (Crj: CD(SD)IGS rats [3]; 200 mg/kg/day): −; Histopathological changes (PLsis): Spleen (Crj: CD(SD)IGS rats [3]; 200 mg/kg/day): −; Histopathological changes (PLsis): Liver (Crj: CD(SD)IGS rats [3]; 600 mg/kg/day): −; Histopathological changes (PLsis): Lung (Crj: CD(SD)IGS rats [3]; 600 mg/kg/day): +; Histopathological changes (PLsis): Lymph node (Crj: CD(SD)IGS rats [3]; 600 mg/kg/day): +; Histopathological changes (PLsis): Others (Crj: CD(SD)IGS rats [3]; 600 mg/kg/day): −; Histopathological changes (PLsis): Spleen (Crj: CD(SD)IGS rats [3]; 600 mg/kg/day): +; Mean vacuolated lymphocyte ratio (Crj: CD(SD)IGS rats [4]; 60 mg/kg/day): 2%; Mean vacuolated lymphocyte ratio (Crj: CD(SD)IGS rats [4]; 200 mg/kg/day): 4%; Mean vacuolated lymphocyte ratio (Crj: CD(SD)IGS rats [4]; 600 mg/kg/day): 52%; PAGN/hippuric acid ratio compared to the control group (male cynomolgus monkeys [5]; cynomolgus monkey urine, 60 mg/kg, gavage 7 days): increased; Urinary PAGN/hippuric acid ratio (male cynomolgus monkeys [5]; Day 0, 1 animal): 2.17; Urinary PAGN/hippuric acid ratio (male cynomolgus monkeys [5]; Day 2, 1 animal): 1.43; Urinary PAGN/hippuric acid ratio (male cynomolgus monkeys [5]; Day 6, 1 animal): ↑12.89; Urinary PAGN/hippuric acid ratio (male cynomolgus monkeys [5]; Pre (pre-dosing period), 1 animal): 1.10
CCN(CC)CCCC(C)Nc1c2ccc(Cl)cc2nc2ccc(OC)cc12 (stereo not shown) [Quinacrine, quinacrine]	1.45	21.82* %	0.32	28.35* %	1.13	1.58	46.42* %	0.75	91.89* %	0.83	1.07*	78.62* %	0.83	441.69* %	0.24	+	+	−	−	−	PAG/hippuric acid concentration ratio compared to the control group (Crj: CD(SD)IGS rats [6]): increased; PAG/hippuric acid ratio (Crj: CD(SD)IGS rats [6]; mean ± SD n = 4): 0.2178 ± 0.0919; Histopathological changes (PLsis): Liver (Crj: CD(SD)IGS rats [3]; 200 mg/kg/day): +; Histopathological changes (PLsis): Lung (Crj: CD(SD)IGS rats [3]; 200 mg/kg/day): +; Histopathological changes (PLsis): Lymph node (Crj: CD(SD)IGS rats [3]; 200 mg/kg/day): +; Histopathological changes (PLsis): Others (Crj: CD(SD)IGS rats [3]; 200 mg/kg/day): −; Histopathological changes (PLsis): Spleen (Crj: CD(SD)IGS rats [3]; 200 mg/kg/day): −; Histopathological changes (PLsis): Liver (Crj: CD(SD)IGS rats [3]; 600 mg/kg/day): +; Histopathological changes (PLsis): Lung (Crj: CD(SD)IGS rats [3]; 600 mg/kg/day): +; Histopathological changes (PLsis): Lymph node (Crj: CD(SD)IGS rats [3]; 600 mg/kg/day): +; Histopathological changes (PLsis): Others (Crj: CD(SD)IGS rats [3]; 600 mg/kg/day): −; Histopathological changes (PLsis): Spleen (Crj: CD(SD)IGS rats [3]; 600 mg/kg/day): −; Mean vacuolated lymphocyte ratio (Crj: CD(SD)IGS rats [4]; 60 mg/kg/day): 14%; Mean vacuolated lymphocyte ratio (Crj: CD(SD)IGS rats [4]; 200 mg/kg/day): 32%; Mean vacuolated lymphocyte ratio (Crj: CD(SD)IGS rats [4]; 600 mg/kg/day): 52%; LD50 [7]: 900 mg/kg

From patent publication US7399638B2, “Prediction method for lipidosis” (Takeda Pharmaceutical Company Limited, priority 2003, dated 2008)
